Assay results published in publication PMC6199744, “Development of Chemical Proteomics for the Folateome and Analysis of the Kinetoplastid Folateome” (ACS Infectious Diseases, 2018).
Like-named read-outs stand apart in the source and are kept apart here.

Key:
Type in all cases: binding
[1] = target: T1, HeLa cell extract proteins (Homo sapiens, UniProt O75694)
T1 construct: endogenous in cells; host or cells: HeLa cell extract
T1 sequence (O75694 1-1391): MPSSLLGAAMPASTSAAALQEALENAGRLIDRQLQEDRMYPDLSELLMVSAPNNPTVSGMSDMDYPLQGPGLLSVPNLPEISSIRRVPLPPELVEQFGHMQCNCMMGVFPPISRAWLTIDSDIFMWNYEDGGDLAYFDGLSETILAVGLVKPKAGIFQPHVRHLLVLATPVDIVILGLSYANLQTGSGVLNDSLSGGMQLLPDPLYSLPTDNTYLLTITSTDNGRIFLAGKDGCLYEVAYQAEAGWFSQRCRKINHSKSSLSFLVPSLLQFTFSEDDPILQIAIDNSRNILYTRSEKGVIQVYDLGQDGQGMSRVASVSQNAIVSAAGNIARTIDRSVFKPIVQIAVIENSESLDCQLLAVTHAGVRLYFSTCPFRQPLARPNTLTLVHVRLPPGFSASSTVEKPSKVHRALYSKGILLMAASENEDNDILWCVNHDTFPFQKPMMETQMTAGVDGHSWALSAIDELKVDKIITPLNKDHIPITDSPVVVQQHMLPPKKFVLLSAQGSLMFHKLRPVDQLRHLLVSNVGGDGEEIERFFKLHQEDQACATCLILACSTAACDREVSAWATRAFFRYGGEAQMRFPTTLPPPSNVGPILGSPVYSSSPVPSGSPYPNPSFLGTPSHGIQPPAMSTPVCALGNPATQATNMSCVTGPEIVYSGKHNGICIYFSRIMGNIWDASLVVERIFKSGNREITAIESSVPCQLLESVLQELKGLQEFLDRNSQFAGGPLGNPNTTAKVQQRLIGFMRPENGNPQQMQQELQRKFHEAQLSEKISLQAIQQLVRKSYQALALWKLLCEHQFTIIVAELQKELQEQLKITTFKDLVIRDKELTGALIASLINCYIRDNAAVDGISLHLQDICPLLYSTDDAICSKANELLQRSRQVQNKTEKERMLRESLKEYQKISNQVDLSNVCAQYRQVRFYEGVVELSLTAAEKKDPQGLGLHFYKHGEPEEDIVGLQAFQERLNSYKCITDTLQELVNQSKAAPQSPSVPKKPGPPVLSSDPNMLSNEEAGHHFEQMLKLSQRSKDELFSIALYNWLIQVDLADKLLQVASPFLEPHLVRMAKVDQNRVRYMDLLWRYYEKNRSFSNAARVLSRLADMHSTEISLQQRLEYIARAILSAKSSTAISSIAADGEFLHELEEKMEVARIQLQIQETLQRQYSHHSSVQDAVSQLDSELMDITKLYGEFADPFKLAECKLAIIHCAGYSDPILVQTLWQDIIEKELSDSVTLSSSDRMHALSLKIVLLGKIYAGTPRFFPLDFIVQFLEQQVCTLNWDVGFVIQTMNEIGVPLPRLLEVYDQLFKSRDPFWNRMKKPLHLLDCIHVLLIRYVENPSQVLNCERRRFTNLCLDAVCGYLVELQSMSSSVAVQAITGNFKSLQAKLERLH

[2] = target: T2, HeLa cell extract proteins (Homo sapiens, UniProt P60842)
T2 construct: endogenous in cells; host or cells: HeLa cell extract
T2 sequence (P60842 whole entry): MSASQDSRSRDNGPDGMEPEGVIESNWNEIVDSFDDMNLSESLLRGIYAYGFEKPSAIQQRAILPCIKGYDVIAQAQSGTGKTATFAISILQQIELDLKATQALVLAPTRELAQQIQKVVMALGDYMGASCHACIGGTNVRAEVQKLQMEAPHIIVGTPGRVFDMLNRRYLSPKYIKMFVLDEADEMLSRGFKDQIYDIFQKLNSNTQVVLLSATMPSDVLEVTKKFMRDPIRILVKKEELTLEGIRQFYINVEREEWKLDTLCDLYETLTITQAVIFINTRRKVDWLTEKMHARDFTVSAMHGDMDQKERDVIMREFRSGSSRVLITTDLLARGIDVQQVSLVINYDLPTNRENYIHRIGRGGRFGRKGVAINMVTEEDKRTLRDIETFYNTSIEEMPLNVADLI

[3] = target: T3, HeLa cell extract proteins (Homo sapiens, UniProt P49336)
T3 construct: endogenous in cells; host or cells: HeLa cell extract
T3 sequence (P49336 whole entry): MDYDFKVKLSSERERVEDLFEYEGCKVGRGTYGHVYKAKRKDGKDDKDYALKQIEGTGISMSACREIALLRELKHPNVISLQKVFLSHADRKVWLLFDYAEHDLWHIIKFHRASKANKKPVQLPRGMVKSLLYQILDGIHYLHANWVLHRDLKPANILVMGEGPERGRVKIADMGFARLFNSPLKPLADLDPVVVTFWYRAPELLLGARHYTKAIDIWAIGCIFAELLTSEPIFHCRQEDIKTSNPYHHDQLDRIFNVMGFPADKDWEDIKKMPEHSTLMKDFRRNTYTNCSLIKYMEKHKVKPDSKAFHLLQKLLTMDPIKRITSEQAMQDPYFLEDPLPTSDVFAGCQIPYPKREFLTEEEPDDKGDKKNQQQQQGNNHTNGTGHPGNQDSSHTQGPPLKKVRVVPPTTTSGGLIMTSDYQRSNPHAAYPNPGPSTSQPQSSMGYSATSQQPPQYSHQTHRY

[4] = target: T4, HeLa cell extract proteins (Homo sapiens, UniProt P62633)
T4 construct: endogenous in cells; host or cells: HeLa cell extract
T4 sequence (P62633 whole entry): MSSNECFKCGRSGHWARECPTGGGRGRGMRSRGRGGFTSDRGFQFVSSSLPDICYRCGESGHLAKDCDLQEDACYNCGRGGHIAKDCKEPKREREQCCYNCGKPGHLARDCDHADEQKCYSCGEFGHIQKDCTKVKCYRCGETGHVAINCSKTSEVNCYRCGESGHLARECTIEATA

[5] = target: T5, HeLa cell extract proteins (Homo sapiens, UniProt Q92945)
T5 construct: endogenous in cells; host or cells: HeLa cell extract
T5 sequence (Q92945 1-711): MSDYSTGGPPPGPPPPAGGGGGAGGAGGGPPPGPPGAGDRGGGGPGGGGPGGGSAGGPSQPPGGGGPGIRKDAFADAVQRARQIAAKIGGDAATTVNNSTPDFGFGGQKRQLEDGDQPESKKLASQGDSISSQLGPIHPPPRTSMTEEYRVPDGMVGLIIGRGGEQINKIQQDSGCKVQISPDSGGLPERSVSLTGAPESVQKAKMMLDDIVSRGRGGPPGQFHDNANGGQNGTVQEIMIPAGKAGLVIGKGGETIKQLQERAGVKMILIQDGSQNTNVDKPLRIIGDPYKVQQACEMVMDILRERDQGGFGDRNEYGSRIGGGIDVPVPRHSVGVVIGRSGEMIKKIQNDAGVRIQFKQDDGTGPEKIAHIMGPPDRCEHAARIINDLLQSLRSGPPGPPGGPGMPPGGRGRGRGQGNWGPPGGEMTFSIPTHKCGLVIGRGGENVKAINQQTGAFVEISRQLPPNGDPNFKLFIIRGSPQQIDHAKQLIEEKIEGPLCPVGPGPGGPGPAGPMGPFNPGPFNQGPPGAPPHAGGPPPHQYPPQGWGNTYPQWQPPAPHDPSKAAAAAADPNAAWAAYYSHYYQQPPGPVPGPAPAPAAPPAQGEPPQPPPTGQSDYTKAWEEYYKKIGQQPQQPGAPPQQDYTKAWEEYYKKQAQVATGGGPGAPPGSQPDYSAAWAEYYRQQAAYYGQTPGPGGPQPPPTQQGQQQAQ

[6] = target: T6, HeLa cell extract proteins (Homo sapiens, UniProt Q01518)
T6 construct: endogenous in cells; host or cells: HeLa cell extract
T6 sequence (Q01518 whole entry): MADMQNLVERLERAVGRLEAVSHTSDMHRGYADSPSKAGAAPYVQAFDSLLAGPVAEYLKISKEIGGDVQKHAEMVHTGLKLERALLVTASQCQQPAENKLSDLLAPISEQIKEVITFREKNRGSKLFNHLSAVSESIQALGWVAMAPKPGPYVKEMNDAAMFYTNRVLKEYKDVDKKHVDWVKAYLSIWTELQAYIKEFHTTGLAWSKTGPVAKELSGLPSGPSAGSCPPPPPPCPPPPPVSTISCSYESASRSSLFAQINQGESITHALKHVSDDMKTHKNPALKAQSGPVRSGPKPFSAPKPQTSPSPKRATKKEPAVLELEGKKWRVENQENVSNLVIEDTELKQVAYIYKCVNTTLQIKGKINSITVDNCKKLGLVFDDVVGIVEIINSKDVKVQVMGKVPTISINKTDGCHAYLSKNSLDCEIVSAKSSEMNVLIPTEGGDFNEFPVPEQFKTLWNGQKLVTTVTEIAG

Nc1nc2cccc(-c3ccccc3)c2n1Cc1ccc(Cl)c(Cl)c1 [compound 3]
fold changes relative to vehicle control ([1]; HeLa, protein NUP155): 1.2
fold changes relative to vehicle control ([2]; protein EIF4A1, HeLa): 0.8
fold changes relative to vehicle control ([3]; captured protein CDK8, HeLa): 1.03
fold changes relative to vehicle control ([4]; protein CNBP, HeLa): 0.83
fold changes relative to vehicle control ([5]; captured protein KHSRP, HeLa): 0.84
fold changes relative to vehicle control ([6]; protein CAP1, HeLa): 0.73

Nc1nc2[nH]cc(CCc3ccc(C(=O)N[C@@H](CCC(=O)O)C(=O)O)cc3)c2c(=O)[nH]1 [PTX, pemetrexed]
fold changes relative to vehicle control [1]: 0.92
fold changes relative to vehicle control [2]: 1.07
fold changes relative to vehicle control [3]: 0.77
fold changes relative to vehicle control [4]: 1.14
fold changes relative to vehicle control [5]: 0.97
fold changes relative to vehicle control [6]: 1.12

Nc1nc2c(c(=O)[nH]1)N(C=O)C(CNc1ccc(C(=O)N[C@@H](CCC(=O)O)C(=O)O)cc1)CN2 (stereo partly drawn) [LEU, leucovorin]
fold changes relative to vehicle control ([1]; HeLa, protein NUP155): 0.87
fold changes relative to vehicle control ([2]; HeLa, protein EIF4A1): 0.99
fold changes relative to vehicle control ([3]; protein CDK8, HeLa): 1.14
fold changes relative to vehicle control ([4]; HeLa, captured protein CNBP): 0.98
fold changes relative to vehicle control ([5]; HeLa, protein KHSRP): 0.9
fold changes relative to vehicle control ([6]; HeLa, protein CAP1): 1

CCCCCCOc1cccc(Cc2cnc(N)nc2N)c1 [compound 2]
fold changes relative to vehicle control ([1]; HeLa, protein NUP155): 1.01
fold changes relative to vehicle control ([2]; protein EIF4A1, HeLa): 1.75
fold changes relative to vehicle control ([3]; captured protein CDK8, HeLa): 0.8
fold changes relative to vehicle control ([4]; protein CNBP, HeLa): 1.8
fold changes relative to vehicle control ([5]; captured protein KHSRP, HeLa): 0.96
fold changes relative to vehicle control ([6]; protein CAP1, HeLa): 2.26

NCCOCCOCC(=O)Nc1nc2ncc(CNc3ccc(C(=O)NC(CCC(=O)O)C(=O)O)cc3)nc2c(=O)[nH]1 (stereo not drawn) [compound 6]
fold changes relative to vehicle control ([1]; HeLa, protein NUP155): 0.92
fold changes relative to vehicle control ([2]; HeLa, protein EIF4A1): 1.27
fold changes relative to vehicle control ([3]; protein CDK8, HeLa): 0.9
fold changes relative to vehicle control ([4]; HeLa, captured protein CNBP): 1.3
fold changes relative to vehicle control ([5]; HeLa, protein KHSRP): 0.96
fold changes relative to vehicle control ([6]; HeLa, protein CAP1): 1.26

CCCCCCOc1ccc(Cc2cnc(N)nc2N)cc1 [compound 1]
fold changes relative to vehicle control ([1]; HeLa, protein NUP155): 1.04
fold changes relative to vehicle control ([2]; protein EIF4A1, HeLa): 1.12
fold changes relative to vehicle control ([3]; captured protein CDK8, HeLa): 0.96
fold changes relative to vehicle control ([4]; protein CNBP, HeLa): 1.26
fold changes relative to vehicle control ([5]; captured protein KHSRP, HeLa): 0.74
fold changes relative to vehicle control ([6]; protein CAP1, HeLa): 1.19

NCCCNc1ccc(C(=O)NC(CCC(=O)O)C(=O)O)cc1 (stereo not drawn) [compound 7]
fold changes relative to vehicle control ([1]; HeLa, protein NUP155): 1.03
fold changes relative to vehicle control ([2]; HeLa, protein EIF4A1): 0.89
fold changes relative to vehicle control ([3]; protein CDK8, HeLa): 1.01
fold changes relative to vehicle control ([4]; HeLa, captured protein CNBP): 1.04
fold changes relative to vehicle control ([5]; HeLa, protein KHSRP): 0.95
fold changes relative to vehicle control ([6]; HeLa, protein CAP1): 0.94
